Test system: mild to moderate AD patients
Assay: Phase 3 trial in mild to moderate AD: safety outcomes (adverse events)
Format: in vivo, human
Conditions: for Maximum mean change in haemoglobin from baseline: at 6 weeks
Experimental: Patients were monitored throughout for adverse events (AEs) and clinical laboratory testing, physical and neurological examinations and 12-lead electrocardiograms were performed at all clinic visits (screening, baseline and Weeks 2, 6, 13, 26, 39, 52, 65 and 69). Patients were also assessed at all visits for suicidal ideation and intent, and were systematically assessed for signs of serotonin toxicity.

[1] = high dose LMTM (75 or 125 mg b.i.d.)

Structure (SMILES): CN(C)c1ccc2c(c1)Sc1cc(N(C)C)ccc1N2 [LMTM, leuco-methythioninium bis(hydromethanesulfonate)]
- Maximum mean change in haemoglobin from baseline (4 mg b.i.d.): -0.01 g/L
- AESI: ARIA, % (75 mg b.i.d. (n = 267)): (1.5) %
- AESI: Methemoglobinemia, hemolytic anemia, and/or Heinz bodies, % (75 mg b.i.d. (n = 267)): (0) %
- AESI: “Serotonin syndrome”, % (75 mg b.i.d. (n = 267)): (0.7) %
- Anemia, % of patients (75 mg b.i.d. (n = 267)): (8.2%)
- Anemia, number of patients (75 mg b.i.d. (n = 267)): 22
- At least one TEAE, % of patients (75 mg b.i.d. (n = 267)): (83.9%)
- At least one TEAE, number of patients (75 mg b.i.d. (n = 267)): 224
- Blood and lymphatic system disorders, % of patients (75 mg b.i.d. (n = 267)): (10.9%)
- Blood and lymphatic system disorders, number of patients (75 mg b.i.d. (n = 267)): 29
- Blood folate decreased, % of patients (75 mg b.i.d. (n = 267)): (6.7%)
- Blood folate decreased, number of patients (75 mg b.i.d. (n = 267)): 18
- Cough, % of patients (75 mg b.i.d. (n = 267)): (5.2%)
- Cough, number of patients (75 mg b.i.d. (n = 267)): 14
- Deaths, % (75 mg b.i.d. (n = 267)): (1.1) %
- Diarrhea, % of patients (75 mg b.i.d. (n = 267)): (23.6%)
- Diarrhea, number of patients (75 mg b.i.d. (n = 267)): 63
- Dysuria, % of patients (75 mg b.i.d. (n = 267)): (2.6%)
- Dysuria, number of patients (75 mg b.i.d. (n = 267)): 7
- Gastrointestinal disorders, % of patients (75 mg b.i.d. (n = 267)): (39.3%)
- Gastrointestinal disorders, number of patients (75 mg b.i.d. (n = 267)): 105
- Infections and infestations, % of patients (75 mg b.i.d. (n = 267)): (31.1%)
- Infections and infestations, number of patients (75 mg b.i.d. (n = 267)): 83
- Investigations, % of patients (75 mg b.i.d. (n = 267)): (32.6%)
- Investigations, number of patients (75 mg b.i.d. (n = 267)): 87
- Nausea, % of patients (75 mg b.i.d. (n = 267)): (8.2%)
- Nausea, number of patients (75 mg b.i.d. (n = 267)): 22
- Other SUSARs, % (75 mg b.i.d. (n = 267)): (0.7) %
- Pollakiuria, % of patients (75 mg b.i.d. (n = 267)): (5.6%)
- Pollakiuria, number of patients (75 mg b.i.d. (n = 267)): 15
- Renal and urinary disorders, % of patients (75 mg b.i.d. (n = 267)): (22.8%)
- Renal and urinary disorders, number of patients (75 mg b.i.d. (n = 267)): 61
- Respiratory, thoracic and mediastinal disorders, % of patients (75 mg b.i.d. (n = 267)): (12.0%)
- Respiratory, thoracic and mediastinal disorders, number of patients (75 mg b.i.d. (n = 267)): 32
- Urinary incontinence, % of patients (75 mg b.i.d. (n = 267)): (6.7%)
- Urinary incontinence, number of patients (75 mg b.i.d. (n = 267)): 18
- Urinary tract infection, % of patients (75 mg b.i.d. (n = 267)): (10.9%)
- Urinary tract infection, number of patients (75 mg b.i.d. (n = 267)): 29
- Vomiting, % of patients (75 mg b.i.d. (n = 267)): (9.4%)
- Vomiting, number of patients (75 mg b.i.d. (n = 267)): 25
- Maximum mean change in haemoglobin from baseline (75 mg b.i.d.): -0.47 g/L
- AESI: ARIA, % (125 mg b.i.d. (n = 264)): (0.4) %
- AESI: Methemoglobinemia, hemolytic anemia, and/or Heinz bodies, % (125 mg b.i.d. (n = 264)): (0.4) %
- AESI: “Serotonin syndrome”, % (125 mg b.i.d. (n = 264)): (0) %
- Anemia, % of patients (125 mg b.i.d. (n = 264)): (5.7%)
- Anemia, number of patients (125 mg b.i.d. (n = 264)): 15
- At least one TEAE, % of patients (125 mg b.i.d. (n = 264)): (86.7%)
- At least one TEAE, number of patients (125 mg b.i.d. (n = 264)): 229
- Blood and lymphatic system disorders, % of patients (125 mg b.i.d. (n = 264)): (9.5%)
- Blood and lymphatic system disorders, number of patients (125 mg b.i.d. (n = 264)): 25
- Blood folate decreased, % of patients (125 mg b.i.d. (n = 264)): (7.2%)
- Blood folate decreased, number of patients (125 mg b.i.d. (n = 264)): 19
- Cough, % of patients (125 mg b.i.d. (n = 264)): (4.2%)
- Cough, number of patients (125 mg b.i.d. (n = 264)): 11
- Deaths, % (125 mg b.i.d. (n = 264)): (1.1) %
- Diarrhea, % of patients (125 mg b.i.d. (n = 264)): (25.4%)
- Diarrhea, number of patients (125 mg b.i.d. (n = 264)): 67
- Dysuria, % of patients (125 mg b.i.d. (n = 264)): (10.2%)
- Dysuria, number of patients (125 mg b.i.d. (n = 264)): 27
- Gastrointestinal disorders, % of patients (125 mg b.i.d. (n = 264)): (42.0%)
- Gastrointestinal disorders, number of patients (125 mg b.i.d. (n = 264)): 111
- Infections and infestations, % of patients (125 mg b.i.d. (n = 264)): (28.8%)
- Infections and infestations, number of patients (125 mg b.i.d. (n = 264)): 76
- Investigations, % of patients (125 mg b.i.d. (n = 264)): (30.3%)
- Investigations, number of patients (125 mg b.i.d. (n = 264)): 80
- Nausea, % of patients (125 mg b.i.d. (n = 264)): (7.2%)
- Nausea, number of patients (125 mg b.i.d. (n = 264)): 19
- Other SUSARs, % (125 mg b.i.d. (n = 264)): (1.5) %
- Pollakiuria, % of patients (125 mg b.i.d. (n = 264)): (6.8%)
- Pollakiuria, number of patients (125 mg b.i.d. (n = 264)): 18
- Renal and urinary disorders, % of patients (125 mg b.i.d. (n = 264)): (24.6%)
- Renal and urinary disorders, number of patients (125 mg b.i.d. (n = 264)): 65
- Respiratory, thoracic and mediastinal disorders, % of patients (125 mg b.i.d. (n = 264)): (8.3%)
- Respiratory, thoracic and mediastinal disorders, number of patients (125 mg b.i.d. (n = 264)): 22
- Urinary incontinence, % of patients (125 mg b.i.d. (n = 264)): (4.5%)
- Urinary incontinence, number of patients (125 mg b.i.d. (n = 264)): 12
- Urinary tract infection, % of patients (125 mg b.i.d. (n = 264)): (9.8%)
- Urinary tract infection, number of patients (125 mg b.i.d. (n = 264)): 26
- Vomiting, % of patients (125 mg b.i.d. (n = 264)): (6.8%)
- Vomiting, number of patients (125 mg b.i.d. (n = 264)): 18
- Maximum mean change in haemoglobin from baseline (125 mg b.i.d.): -0.93 g/L
- Non-fatal SAEs possibly related to treatment (% of the cases, all arms): 14%
- Patients with transient responses indicating a wish to be dead (Columbia Suicide Severity Rating Scale) (all arms): 26 patients
- Patients with one or more other non-fatal serious adverse events (SAEs) (all arms, evenly distributed between the three treatment groups): 97 patients
- Patients who developed ARIA during the study, frequency (all arms, no dose relationship): < 1%
- Patients who developed ARIA during the study, total (all arms, no dose relationship): 8 patients
- Patients who died during the study (all arms, none related to treatment): 9 patients
- Haemolytic anemia cases (all doses): no case of haemolytic anemia
- Patients with transient symptoms consistent with serotonergic excess (both treated with LMTM 75 mg b.i.d., no concomitant serotonergic drug): 2 patients
- AESI: ARIA, % (control 4 mg b.i.d. (n = 354)): (0.8) %
- AESI: Methemoglobinemia, hemolytic anemia, and/or Heinz bodies, % (control 4 mg b.i.d. (n = 354)): (0.3) %
- AESI: “Serotonin syndrome”, % (control 4 mg b.i.d. (n = 354)): (0) %
- Anemia, % of patients (control 4 mg b.i.d. (n = 354)): (2.8%)
- Anemia, number of patients (control 4 mg b.i.d. (n = 354)): 10
- At least one TEAE, % of patients (control 4 mg b.i.d. (n = 354)): (83.6%)
- At least one TEAE, number of patients (control 4 mg b.i.d. (n = 354)): 296
- Blood and lymphatic system disorders, % of patients (control 4 mg b.i.d. (n = 354)): (4.8%)
- Blood and lymphatic system disorders, number of patients (control 4 mg b.i.d. (n = 354)): 17
- Blood folate decreased, % of patients (control 4 mg b.i.d. (n = 354)): (5.9%)
- Blood folate decreased, number of patients (control 4 mg b.i.d. (n = 354)): 21
- Cough, % of patients (control 4 mg b.i.d. (n = 354)): (3.4%)
- Cough, number of patients (control 4 mg b.i.d. (n = 354)): 12
- Deaths, % (control 4 mg b.i.d. (n = 354)): (0.8) %
- Diarrhea, % of patients (control 4 mg b.i.d. (n = 354)): (9.3%)
- Diarrhea, number of patients (control 4 mg b.i.d. (n = 354)): 33
- Dysuria, % of patients (control 4 mg b.i.d. (n = 354)): (0.8%)
- Dysuria, number of patients (control 4 mg b.i.d. (n = 354)): 3
- Gastrointestinal disorders, % of patients (control 4 mg b.i.d. (n = 354)): (24.6%)
- Gastrointestinal disorders, number of patients (control 4 mg b.i.d. (n = 354)): 87
- Infections and infestations, % of patients (control 4 mg b.i.d. (n = 354)): (24.9%)
- Infections and infestations, number of patients (control 4 mg b.i.d. (n = 354)): 88
- Investigations, % of patients (control 4 mg b.i.d. (n = 354)): (22.6%)
- Investigations, number of patients (control 4 mg b.i.d. (n = 354)): 80
- Nausea, % of patients (control 4 mg b.i.d. (n = 354)): (4.0%)
- Nausea, number of patients (control 4 mg b.i.d. (n = 354)): 14
- Other SUSARs, % (control 4 mg b.i.d. (n = 354)): (0.6) %
- Pollakiuria, % of patients (control 4 mg b.i.d. (n = 354)): (1.7%)
- Pollakiuria, number of patients (control 4 mg b.i.d. (n = 354)): 6
- Renal and urinary disorders, % of patients (control 4 mg b.i.d. (n = 354)): (8.2%)
- Renal and urinary disorders, number of patients (control 4 mg b.i.d. (n = 354)): 29
- Respiratory, thoracic and mediastinal disorders, % of patients (control 4 mg b.i.d. (n = 354)): (7.9%)
- Respiratory, thoracic and mediastinal disorders, number of patients (control 4 mg b.i.d. (n = 354)): 28
- Urinary incontinence, % of patients (control 4 mg b.i.d. (n = 354)): (2.5%)
- Urinary incontinence, number of patients (control 4 mg b.i.d. (n = 354)): 9
- Urinary tract infection, % of patients (control 4 mg b.i.d. (n = 354)): (8.2%)
- Urinary tract infection, number of patients (control 4 mg b.i.d. (n = 354)): 29
- Vomiting, % of patients (control 4 mg b.i.d. (n = 354)): (0.6%)
- Vomiting, number of patients (control 4 mg b.i.d. (n = 354)): 2
- Patients with anaemia-related adverse event terms (grouped) (control (4 mg b.i.d.)): 16%
- Convulsion (SAE possibly related to treatment), cases (control arm (4 mg b.i.d.)): 4
- Patients discontinuing for gastrointestinal or urinary adverse events (control patients (4 mg b.i.d.)): 1-2%
- Patients with anaemia-related adverse event terms (grouped) (high dose LMTM): 22%
- Patients discontinuing for gastrointestinal adverse events [1]: 9%
- Patients discontinuing for urinary tract adverse events [1]: 3%
- Incidence of gastrointestinal adverse events with co-medication (patients also receiving acetylcholinesterase inhibitors (data not shown)): about two-fold higher

Source: US12310973B2, “Administration and dosage of diaminophenothiazines” (WisTa Laboratories Ltd., priority 2016, dated 2025)
